From publication PMC12516379, “Rotamer-Controlled Self-Immolative Linkers Enable Tunable Release of Neurosteroid Oxime Prodrugs” (ACS Medicinal Chemistry Letters, 2025)

Assay: Aqueous solubility by visual inspection in acetate buffer (pH 5)
Settings: sodium acetate buffer, pH 5, aqueous buffer, thermodynamic from solid
Method: For the solubility assessment, acetate buffer (pH 5) was selected as the media of choice to ensure prodrug stability during analysis.
High aqueous solubility was determined by visual inspection of 5 mg solid material in 0.5 mL
sodium acetate buffer solution. This media was selected to ensure stability of prodrugs during
dissolution in 50 mg/mL aqueous media.

CNCCN(C)C(=O)O/N=C(\C)[C@H]1CC[C@H]2[C@@H]3CCC4=CC(=O)CC[C@]4(C)[C@H]3CC[C@]12C [20a]
solubility: > 10000 µg/mL
